Values quoted from earlier work, collected in US6355226B1, “Topical treatment of skin disease and eye afflictions” (Advanced Viral Research Corp., priority 1997, dated 2002).

Legend:
[1] = system: cytomegalovirus (CM)
[2] = system: genital herpes infection; settings: topically administered ointment
[3] = system: herpes simplex 1 and 2 (HSV 1 and 2)

SMILES: Nc1nc2c(ncn2COCCO)c(=O)[nH]1 [acyclovir]
- effectiveness against cytomegalovirus [1]: not against cytomegalovirus
- effect on recurrent genital herpes disease [2]: little if any, effect
- effectiveness in primary first occurrence of genital herpes infection [2]: seems to be effective
- effectiveness against HSV 1 and 2 [3]: specifically effective
